Reference: patent publication US20240342071A1, “HEXAPEPTIDE,COSMETIC COMPOSITION OR PHARMACEUTICAL COMPOSITION CONTAINING SAME, AND USE OF HEXAPEPTIDE” (SHENZHEN WINKEY TECHNOLOGY CO., LTD, priority 2021, published 2024)

Key:
[1] = test system: TNF-α; experiment: Anti-inflammatory cell assay: TNF-α ELISA in LPS-stimulated RAW 264.7 cells; assay type: cell-based, Mouse; conditions: 200 ng/mL LPS; for effect on TNF-α expression compared with the positive drug dexamethasone: 100 ppm peptide vs 50 ng/ml dexamethasone, RAW 264.7; for TNF-α expression: 100 ppm, RAW 264.7, 48 h, vs LPS alone
Procedure: (§1) Fetal bovine serum, DMEM culture medium, penicillin, streptomycin, an IL-6 ELISA kit and a TNF-α ELISA kit.
(§2) Mouse monocyte macrophages (RAW 264.7 cells).
(§3) 100 ppm of the reference peptide, 100 ppm of the peptide (5), 100 ppm of the peptide (11), and 100 ppm of the peptide (17); the peptides were dissolved with a PBS solution, respectively.
(§4) The frozen RAW 264.7 cells were cultured and passaged at a ratio of 1:2 to about the 5th generation, and the cells in better growth were selected as experiment subjects.
(§5) A cell suspension was diluted properly and inoculated on a 6-well plate at 100,000 cells/well. When the cells were about 80% confluent, an LPS-stimulated inflammation model was established. A blank control group (control), a LPS group, a dexamethasone group (DXM), and polypeptide groups were set. The blank control group was supplemented with the culture medium to 1000 μL; in the LPS group, 200 ng/mL LPS was added, and supplemented with the culture medium to 1000 μL; in the dexamethasone group, 200 ng/mL LPS and 50 ng/ml dexamethasone were added, and supplemented with the culture medium to 1000 μL; in the polypeptide groups, 200 ng/mL LPS and a polypeptide were added, and supplemented with culture medium to 1000 μL (the final test concentration of the polypeptide was 100 ppm). The above groups were further incubated in a 5% CO2 incubator at 37° C. for 48 h. The solutions were centrifuged at 3000 rpm for 15 min, in each of which a cell supernatant was collected to obtain a sample liquid. Operations were performed according to the instructions of the IL-6 and TNF-α ELISA kits.
(§6) Inflammatory factors such as TNF-α and IL-6 can cause the body's immune overresponse, leading to skin ulcers, redness and other problems. Therefore, inhibiting inflammatory factors such as TNF-α and IL-6 secreted by monocytes in the skin can achieve anti-inflammatory and repairing effects. An inflammation model was established by stimulating RAW 264.7 cells with 200 ng/mL LPS to investigate the anti-inflammatory and repairing effects of the peptides of the present invention.

[2] = test system: HaCaT cells; experiment: Cell viability assay (MTT) on HaCaT cells; assay type: cell-based, Human; conditions: 72 h; for toxicity to HaCaT cells: 100 ppm, compared with the control group
Text: Phosphate-buffered saline (PBS) (Gibco), thiazolyl blue (MTT) (Sigma), dimethyl sulfoxide (DMSO) (Sigma), a high glucose culture medium (DMEM) (Gibco), and fetal bovine serum (Gibco).
Human keratinocytes (HaCaT) were purchased from the Kunming Cell Bank of China Center for Type Culture Collection under the Chinese Academy of Sciences.
The peptide Ac-Phe-Phe-Trp-Phe-His-Val-NH2 (hereinafter referred to as the reference peptide) at a test concentration of 1 ppm, 10 ppm, 50 ppm, and 100 ppm respectively; • the peptide (5) at a test concentration of 1 ppm, 10 ppm, 50 ppm, and 100 ppm, respectively; • the peptide (11) at a test concentration of 1 ppm, 10 ppm, 50 ppm, and 100 ppm, respectively; • the peptide (17) at a test concentration of 1 ppm, 10 ppm, 50 ppm, and 100 ppm, respectively. Control group: • PBS blank control.
The frozen HaCaT cells were cultured and passaged at a ratio of 1:2 to about the 5th generation, and the cells in better growth were selected as experiment subjects.
The cells were inoculated in a 96-well plate at 2000 cells/well. After the cells adhered to the wall, samples of the drug groups and the control group were added according to the multiple dilution method, supplemented with a culture medium to 200 μL, and incubated in a 5% CO2 incubator at 37° C. for 72 h.
Then 22 μL 5 mg/ml MTT was added to each well and the incubation was continued in the 5% CO2 incubator at 37° C. for 4 h. The original solution was removed and 150 μL/well DMSO was added. After 5 min, the microplate reader was used to read the reference OD values at 490 nm and 630 nm wavelengths.
The MTT assay is a method of detecting cell survival and growth. The control group is taken as a reference value. Four dosage concentrations were set from high to low for each sample, and cell viability assays were carried out on HaCaT cells. The measured OD values are directly proportional to cell viability.

[3] = test system: IL-6; experiment: Anti-inflammatory cell assay: IL-6 ELISA in LPS-stimulated RAW 264.7 cells; assay type: cell-based, Mouse; conditions: 100 ppm, 200 ng/mL LPS, RAW 264.7, 48 h, vs LPS alone
Procedure: as §1, §2, §3, §4, §5, §6

Row | Substance | effect on TNF-α expression compared with the positive drug dexamethasone [1] | TNF-α expression [1] | toxicity to HaCaT cells [2] | expression of IL-6 [3] | proliferation effects on cells ([2]; HaCaT, 50 ppm)
1 | Ac-FFWFHG-NH2 [peptide (17), Ac-Phe-Phe-Trp-Phe-His-Gly-NH2] | equivalent to that of the positive drug dexamethasone, or having even more excellent effects than dexamethasone | significantly down-regulated | no toxicity | significantly down-regulated | 
2 | Ac-FFWFHL-NH2 [peptide (11), Ac-Phe-Phe-Trp-Phe-His-Leu-NH2] | equivalent to that of the positive drug dexamethasone, or having even more excellent effects than dexamethasone | significantly down-regulated | no toxicity | significantly down-regulated | 
3 | Ac-FFWFHV-NH2 [reference peptide, Ac-Phe-Phe-Trp-Phe-His-Val-NH2, reference compound] | equivalent to that of the positive drug dexamethasone, or having even more excellent effects than dexamethasone | significantly down-regulated | no toxicity | significantly down-regulated | significant proliferation effects
4 | Ac-FFWFKV-NH2 [peptide (5), Ac-Phe-Phe-Trp-Phe-Lys-Val-NH2] |  |  | no toxicity |  | 
